Laboratory results from PMC8443589, “Modelling human liver fibrosis in the context of non-alcoholic steatohepatitis using a microphysiological system” (Communications Biology, 2021).

Columns and labels:
[1] = system: liver MPS NASH model (PHH, KC and HSC co-cultures); assay: Cue study: secreted cytokines and chemokines (Luminex) with varying NPC number and added cues (Fig 5a, 5b); format: cell-based, human; settings: for EGF relative expression (z-transformation) / Eotaxin relative expression (z-transformation) / FGF-2 relative expression (z-transformation) / Fit-3L relative expression (z-transformation) / Fractalkine relative expression (z-transformation) / G-CSF relative expression (z-transformation) / GM-CSF relative expression (z-transformation) / GRO relative expression (z-transformation) / IFN-a2 relative expression (z-transformation) / IL-1RA relative expression (z-transformation) / IL-4 relative expression (z-transformation) / IL-6 relative expression (z-transformation) / IL-7 relative expression (z-transformation) / IL-8 relative expression (z-transformation) / IL-15 relative expression (z-transformation) / IP-10 relative expression (z-transformation) / MCP-1 relative expression (z-transformation) / MCP-3 relative expression (z-transformation) / MDC relative expression (z-transformation) / MIP-1a relative expression (z-transformation) / MIP-1b relative expression (z-transformation) / TNFa relative expression (z-transformation) / VEGF relative expression (z-transformation): Fat media + cue
Source text: There is only limited understanding of the pathogenic drivers of NASH and their interaction, principally due to a lack of translational models that are amenable to detailed molecular analysis[2],[34]. Here, a systems biology ‘cue-signal-analysis’ paradigm[35],[36] was utilised to produce large factorial datasets to enable the identification of molecular pathways of importance. […] To create varying set ups of the NASH microtissues we created hepatocyte microtissues in the MPS with high numbers of NPC (60,000 KC and HSC—equivalent to 10% of microtissue population) and low numbers of NPCs (6000 KC and HSC—equivalent to 1% of microtissue), representing physiological and non-physiological cell ratios respectively. Next, we took these different microtissues and cultured them in media with or without FFA. Finally, we supplemented the media with lipopolysaccharide (LPS), TGFβ, fructose or cholesterol either as single ‘cues’, in pairs or all together (Fig. 4a). ‘Cues’ were selected for clinical association with NASH. LPS, is a pleiotropic inflammatory molecule, it is proposed to reach the liver via the hepatic portal vein after release from the gastrointestinal tract, contributing to disease progression[37],[38]. TGFβ has been extensively studied in relation to fibrosis due to its regulation of genes controlling collagen and matrix-modifying enzymes. Fructose is a key substrate for de-novo lipogenesis, a process that has been identified as a key event in lipid accumulation within NAFLD patients. Finally, cholesterol accumulation has also been linked to NASH disease aetiology.
Assessment of gene expression changes was supplemented by assessment of the secretome produced by NASH microtissues in the MPS after exposure to the various cues. Increased pro-inflammatory cytokine secretion is a defining characteristic in NASH patients, so we conducted a Luminex cytokine array covering 42 different biomarkers, cytokines and chemokines secreted into the culture media of the different microtissues at multiple time points. […]

[2] = system: liver MPS NASH model (PHH, KC and HSC co-cultures); assay: Cue study: pro-fibrotic biomarkers TIMP-1, pro-collagen 1, fibronectin (Fig 5c); format: cell-based, human; settings: fat medium + cue
Source text: Assessment of gene expression changes was supplemented by assessment of the secretome produced by NASH microtissues in the MPS after exposure to the various cues. Increased pro-inflammatory cytokine secretion is a defining characteristic in NASH patients, so we conducted a Luminex cytokine array covering 42 different biomarkers, cytokines and chemokines secreted into the culture media of the different microtissues at multiple time points. We consistently detected 27 out of the 42 biomarkers and observed that there was differential expression of cytokines and chemokines driven by the different cues applied to the micro-tissue (Fig. 5a, b). The LPS cue and the presence of higher NPC numbers were responsible for driving the largest increase in cytokine and chemokine release, with the largest increases in cytokines measured on day 14 (Fig. 5b). […] Similarly, to the cytokine production, these changes were not further enhanced by combining cues, as all the cue combinations containing TGFβ had the highest expression (Supp. Fig. 17c).
Fig. 5 Systems biology interrogation of liver MPS NASH model to determine physiologically relevant cues that promote soluble biomarker changes to mimic advanced NASH disease state. PHH, KC and HSC co-cultures were cultured in the MPS platform under a variety of conditions for 14 days to test number of NPCs, presence of fat, fructose, cholesterol, LPS and TGFβ for effects on the soluble biomarker profile of the liver MPS NASH model. Expression of biomarkers, cytokines and chemokines were compared, all concentrations were normalised by Z-transformation to allow comparison and shown relative to mean for each marker (white = not detected). a Cytokine expression compared with varying levels of NPCs; b for the high NPC group in the presence of additional cues; c Expression of pro-fibrotic biomarkers with varying NPC content and with additional varying cues in high NPC condition (additional data in Supp. Fig. 17). d Graphical summary of the changes that occur in the NASH model in the presence of Fat and Fat + TGFβ. All data were generated from a minimum of three independent replicate samples per condition.
The MPS LC12 plates consists of 12 individual bioreactors that contain pneumatically driven micro-pumps to recirculate cell culture medium through a collagen-coated scaffold. Cells were cultured using the protocol previously described[20],[21], but briefly, PHH were seeded at a density of 6 × 10^5 viable cells per well on the LC12 plates with each NPC population (KC and/or HSC) at a density of 6 × 10^4 viable cells per well. Each well contained a final volume of 1.6 mL of medium per well and maintained under a flow rate of 1.0 µL/s. Cells were seeded in Williams E medium containing primary hepatocyte thawing and plating supplements (Life Technologies, USA) and cultured initially under downward flow for 8 h before the flow was automatically reversed to upward flow for the next 16 h of culture. Microtissues were then cultured in either HEP-Lean or HEP-Fat medium, both media’s are proprietary to CN Bio Innovations Ltd. The HEP-Fat medium is a derivative of the HEP-LEAN medium and contains a mixture of saturated and unsaturated FFAs, as well as physiologically relevant quantities of insulin and sugars. Complete media changes were performed on all wells every 48–72 h. For certain experiments, the media was supplemented with additional additives from day 4 onwards: 1 ng/ml LPS (lipopolysaccharides from Escherichia coli O111:B4) (Sigma Aldrich, UK), 1 ng/ml recombinant TGF beta 1 protein (Abcam, UK); 500 µM Fructose (Sigma Aldrich, UK), 50 µg/ml Cholesterol (Sigma Aldrich, UK). […]

O=C(CO)[C@@H](O)[C@H](O)[C@H](O)CO [Fructose]
EGF relative expression (z-transformation) ([1]; Day 6): -1.038 | Eotaxin relative expression (z-transformation) ([1]; Day 6): -0.782 | FGF-2 relative expression (z-transformation) ([1]; Day 6): -1.187 | Fit-3L relative expression (z-transformation) ([1]; Day 6): -0.2857 | Fractalkine relative expression (z-transformation) ([1]; Day 6): -0.2691 | G-CSF relative expression (z-transformation) ([1]; Day 6): -0.36 | GM-CSF relative expression (z-transformation) ([1]; Day 6): -0.4175 | GRO relative expression (z-transformation) ([1]; Day 6): -0.4254 | IFN-a2 relative expression (z-transformation) ([1]; Day 6): 0.2777 | IL-1RA relative expression (z-transformation) ([1]; Day 6): 0.2038 | IL-4 relative expression (z-transformation) ([1]; Day 6): -1.323 | IL-6 relative expression (z-transformation) ([1]; Day 6): -0.4543 | IL-7 relative expression (z-transformation) ([1]; Day 6): -0.8373 | IL-8 relative expression (z-transformation) ([1]; Day 6): 0.2742 | IL-15 relative expression (z-transformation) ([1]; Day 6): -0.4814 | IP-10 relative expression (z-transformation) ([1]; Day 6): -0.2708 | MCP-1 relative expression (z-transformation) ([1]; Day 6): 0.3757 | MCP-3 relative expression (z-transformation) ([1]; Day 6): -0.2673 | MDC relative expression (z-transformation) ([1]; Day 6): 1.214 | MIP-1a relative expression (z-transformation) ([1]; Day 6): 0.03503 | MIP-1b relative expression (z-transformation) ([1]; Day 6): -0.1641 | TNFa relative expression (z-transformation) ([1]; Day 6): -0.2082 | VEGF relative expression (z-transformation) ([1]; Day 6): 1.537 | EGF relative expression (z-transformation) ([1]; Day 11): -0.1015 | Eotaxin relative expression (z-transformation) ([1]; Day 11): 0.09562 | FGF-2 relative expression (z-transformation) ([1]; Day 11): -0.4563 | Fit-3L relative expression (z-transformation) ([1]; Day 11): 1.324 | Fractalkine relative expression (z-transformation) ([1]; Day 11): 0.9874 | G-CSF relative expression (z-transformation) ([1]; Day 11): -1.298 | GM-CSF relative expression (z-transformation) ([1]; Day 11): -0.6 | GRO relative expression (z-transformation) ([1]; Day 11): -0.3142 | IFN-a2 relative expression (z-transformation) ([1]; Day 11): 0.6908 | IL-1RA relative expression (z-transformation) ([1]; Day 11): 0.879 | IL-4 relative expression (z-transformation) ([1]; Day 11): -0.3331 | IL-6 relative expression (z-transformation) ([1]; Day 11): -0.2984 | IL-7 relative expression (z-transformation) ([1]; Day 11): -0.3548 | IL-8 relative expression (z-transformation) ([1]; Day 11): -0.6705 | IL-15 relative expression (z-transformation) ([1]; Day 11): 0.3314 | IP-10 relative expression (z-transformation) ([1]; Day 11): -0.257 | MCP-1 relative expression (z-transformation) ([1]; Day 11): 0.4252 | MCP-3 relative expression (z-transformation) ([1]; Day 11): -0.08763 | MDC relative expression (z-transformation) ([1]; Day 11): 0.03858 | MIP-1a relative expression (z-transformation) ([1]; Day 11): -0.4174 | MIP-1b relative expression (z-transformation) ([1]; Day 11): 0.1119 | TNFa relative expression (z-transformation) ([1]; Day 11): -0.3492 | VEGF relative expression (z-transformation) ([1]; Day 11): -0.07553 | EGF relative expression (z-transformation) ([1]; Day 14): -0.09066 | Eotaxin relative expression (z-transformation) ([1]; Day 14): 1.581 | FGF-2 relative expression (z-transformation) ([1]; Day 14): 0.5869 | Fit-3L relative expression (z-transformation) ([1]; Day 14): 1.267 | Fractalkine relative expression (z-transformation) ([1]; Day 14): 0.9131 | G-CSF relative expression (z-transformation) ([1]; Day 14): 0.4426 | GM-CSF relative expression (z-transformation) ([1]; Day 14): -0.06657 | GRO relative expression (z-transformation) ([1]; Day 14): 0.04245 | IFN-a2 relative expression (z-transformation) ([1]; Day 14): 2.403 | IL-1RA relative expression (z-transformation) ([1]; Day 14): 1.114 | IL-4 relative expression (z-transformation) ([1]; Day 14): 0.7104 | IL-6 relative expression (z-transformation) ([1]; Day 14): 0.4182 | IL-7 relative expression (z-transformation) ([1]; Day 14): 1.313 | IL-8 relative expression (z-transformation) ([1]; Day 14): 0.7194 | IL-15 relative expression (z-transformation) ([1]; Day 14): 1.407 | IP-10 relative expression (z-transformation) ([1]; Day 14): 0.8479 | MCP-1 relative expression (z-transformation) ([1]; Day 14): 2.011 | MCP-3 relative expression (z-transformation) ([1]; Day 14): 1.298 | MDC relative expression (z-transformation) ([1]; Day 14): 0.1904 | MIP-1a relative expression (z-transformation) ([1]; Day 14): 0.03023 | MIP-1b relative expression (z-transformation) ([1]; Day 14): 0.8239 | TNFa relative expression (z-transformation) ([1]; Day 14): 0.4054 | VEGF relative expression (z-transformation) ([1]; Day 14): -1.095 | IP-10 production ([1]; day 15): biggest increase | Fibronectin (Fold change in cytokine production compared to control) ([2]; Day 6, high NPC): 1.389 | Pro-collagen 1 (Fold change in cytokine production compared to control) ([2]; Day 6, high NPC): 2.273 | TIMP-1 (Fold change in cytokine production compared to control) ([2]; Day 6, high NPC): 1.299 | Fibronectin (Fold change in cytokine production compared to control) ([2]; Day 11, high NPC): 0.7381 | Pro-collagen 1 (Fold change in cytokine production compared to control) ([2]; Day 11, high NPC): 1.299 | TIMP-1 (Fold change in cytokine production compared to control) ([2]; Day 11, high NPC): 0.1393 | Fibronectin (Fold change in cytokine production compared to control) ([2]; Day 14, high NPC): 0.7006 | Pro-collagen 1 (Fold change in cytokine production compared to control) ([2]; Day 14, high NPC): 0.7125 | TIMP-1 (Fold change in cytokine production compared to control) ([2]; Day 14, high NPC): 0.2326
